Measurements as given in article PMC10054454, “Phenotypic Discovery of Thiocarbohydrazone with Anticancer Properties and Catalytic Inhibition of Human DNA Topoisomerase IIα” (Pharmaceuticals, 2023).

How the values were obtained:
[1] = molecular target: T1, human DNA topoisomerase IIα (Homo sapiens, UniProt P11388); experiment: topo IIα-mediated kDNA decatenation and supercoiled pBR322 relaxation gel assays; HTS relaxation assay; cleavage assay (not a poison); assay type: biochemical
T1 construct: gene TOP2A
T1 sequence (P11388 whole entry): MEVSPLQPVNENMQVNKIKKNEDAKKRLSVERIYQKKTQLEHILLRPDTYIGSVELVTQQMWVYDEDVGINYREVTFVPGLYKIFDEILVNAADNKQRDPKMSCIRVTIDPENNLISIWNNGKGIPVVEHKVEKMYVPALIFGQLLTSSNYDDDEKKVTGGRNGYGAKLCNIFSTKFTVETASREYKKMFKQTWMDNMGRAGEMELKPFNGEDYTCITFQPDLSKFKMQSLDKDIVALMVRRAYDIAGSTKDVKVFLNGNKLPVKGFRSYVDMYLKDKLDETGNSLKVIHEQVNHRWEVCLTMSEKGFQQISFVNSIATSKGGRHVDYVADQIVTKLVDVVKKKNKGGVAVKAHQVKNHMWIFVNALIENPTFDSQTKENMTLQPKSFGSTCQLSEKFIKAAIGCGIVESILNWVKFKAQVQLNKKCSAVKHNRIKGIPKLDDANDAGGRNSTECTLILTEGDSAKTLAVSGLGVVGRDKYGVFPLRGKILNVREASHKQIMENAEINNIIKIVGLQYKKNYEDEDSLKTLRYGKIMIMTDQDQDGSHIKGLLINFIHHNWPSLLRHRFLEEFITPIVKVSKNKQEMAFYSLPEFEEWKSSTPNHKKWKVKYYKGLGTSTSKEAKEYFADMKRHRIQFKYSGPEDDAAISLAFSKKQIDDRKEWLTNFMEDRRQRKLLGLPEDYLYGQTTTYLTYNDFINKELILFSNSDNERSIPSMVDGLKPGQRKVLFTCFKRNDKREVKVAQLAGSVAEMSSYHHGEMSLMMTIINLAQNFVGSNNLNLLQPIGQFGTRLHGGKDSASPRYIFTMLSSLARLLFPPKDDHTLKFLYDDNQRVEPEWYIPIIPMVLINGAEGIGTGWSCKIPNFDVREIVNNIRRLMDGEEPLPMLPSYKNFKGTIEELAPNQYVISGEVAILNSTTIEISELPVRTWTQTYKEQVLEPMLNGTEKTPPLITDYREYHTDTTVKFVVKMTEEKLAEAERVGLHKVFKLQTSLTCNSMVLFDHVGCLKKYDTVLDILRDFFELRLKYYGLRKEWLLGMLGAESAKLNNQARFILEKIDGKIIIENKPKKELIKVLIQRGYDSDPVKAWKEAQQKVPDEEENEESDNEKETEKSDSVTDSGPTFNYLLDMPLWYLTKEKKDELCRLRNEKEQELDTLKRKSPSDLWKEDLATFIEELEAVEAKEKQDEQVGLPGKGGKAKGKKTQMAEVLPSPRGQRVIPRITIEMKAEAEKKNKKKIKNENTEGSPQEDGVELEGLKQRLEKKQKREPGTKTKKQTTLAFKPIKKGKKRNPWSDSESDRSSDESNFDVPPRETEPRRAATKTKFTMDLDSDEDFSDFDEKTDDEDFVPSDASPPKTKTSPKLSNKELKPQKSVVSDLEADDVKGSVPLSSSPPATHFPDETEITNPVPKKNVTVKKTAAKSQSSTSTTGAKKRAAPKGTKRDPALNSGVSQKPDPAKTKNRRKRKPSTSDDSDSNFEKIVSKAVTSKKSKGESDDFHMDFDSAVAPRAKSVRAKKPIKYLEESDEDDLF

[2] = molecular target: T1, human DNA topoisomerase IIα; experiment: topo IIα cleavage assay (linear plasmid accumulation), HTS relaxation and decatenation assays; assay type: biochemical

| Structure (SMILES) | inhibition at 50 µM [1] [%] | inhibition at 50 µM [2] [%] |
| --- | --- | --- |
| Oc1ccccc1C=NNC(=S)NN=Cc1ccccc1O [compound 2, 1,5-bis(salicylidene)thiocarbohydrazide] | 56 |  |
| COc1cc([C@@H]2c3cc4c(cc3[C@@H](O[C@@H]3O[C@@H]5CO[C@@H](C)O[C@H]5[C@H](O)[C@H]3O)[C@H]3COC(=O)[C@H]23)OCO4)cc(OC)c1O [etoposide] |  | 70 |
